From patent US9261498B2, “Biomarker for sensitivity to mTOR inhibitor therapy in kidney cancer” (The Regents of the University of California, priority 2005, dated 2016)
Entries after “also recorded” stand apart in the source; their conditions may differ.

Legend:
HIF-1α = assay: Immunoblot of heterologously expressed HIF-1α cDNA with or without 5'TOP sequences; assay type: cell-based, human; settings: VHL wild-type SN12C cells, 1 or 10 nM CCI-779, 24 hours
Protocol: (§1) (a) SN12C-CSCG and SN12C-VHLshRNA cell were treated with vehicle, 1 nM or 10 nM of CCI-779 and lysed 24 hours later. Lysates were subjected to immunoblotting for HIF-1α, HIF-2α, GLUT-1, CA-IX, p-eIF4G, p-S6 Ribosomal protein. Equal protein loading was verified using anti-β-actin antibody. (b) HIF-1α expression was probed by immunoblotting in SN12C-MSCV-5′TOP-HIF-1α cDNA (left panel) and SN12C-MSCV-HIF-1α cDNA (tight panel) post 24 hours of vehicle, 1 nM or 10 nM of CCI-779.
The pCSUVCG (U6-shRNA-VHL-CMV-GFP) was constructed by ligating the BamHI/EcoRI digests of pCSCG and the U6-shRNA-VHL PCR product (see, e.g. Chen, C. D. et al. Nat Med 10, 33-9 (2004)). The U6-shRNA-VHL PCR was performed using a hU6-containing plasmid at an annealing temperature of 60° C. with the primers 5′ abc 3′ and 5′ xyz 3′. […]
(§2) Cells and xenograft tumors were lysed in ECB lysis buffer or high-detergent buffer (2% SDS), respectively, supplemented with complete protease and phosphatase inhibitor cocktails (Calbiochem). […] Bound antibody was detected using enhanced chemiluminescence (ECL, Amersham). For VEGF ELISA quantification, cells were plated in 6 well plates (1×10^5 per well). […] Thirty-six hours later, VEGF ELISA (R&D Systems) was performed according to the manufacturer's instructions, using a Fisher Plate reader. […]

HIF-2α = assay: Immunoblot of HIF-2α protein in VHL knockdown RCC cells; assay type: cell-based, human; settings: 1 and 10 nM CCI-779, 24 hours
Protocol: as §1
as §2, with “lysis buffer (see, e.g. Kondo et al., Cancer Cell 1, 237-46 (2002)) or high-detergent” for “lysis buffer or high-detergent”, “(2% SDS), (see, e.g. Chen et al., Nat Med 10, 33-9 (2004)), respectively, supplemented” for “(2% SDS), respectively, supplemented”
Cells and xenograft tumors were lysed in ECB lysis buffer or high-detergent buffer (2% SDS), respectively, supplemented with complete protease and phosphatase inhibitor cocktails (Calbiochem). […] Bound antibody was detected using enhanced chemiluminescence (ECL, Amersham). […]

Structure (SMILES): CO[C@H]1C[C@@H]2CC[C@@H](C)[C@@](O)(O2)C(=O)C(=O)N2CCCC[C@H]2C(=O)O[C@H]([C@H](C)C[C@@H]2CC[C@@H](OC(=O)C(C)(CO)CO)[C@H](OC)C2)CC(=O)[C@H](C)/C=C(\C)[C@@H](O)[C@@H](OC)C(=O)[C@H](C)C[C@H](C)/C=C/C=C/C=C/1C [CCI-779]
- HIF-1α protein levels, 5'TOP sequence removed (HIF-1α): largely unaffected
- HIF-1α protein levels, cDNA retaining the 5'TOP sequences (HIF-1α): reduction in HIF-1α protein levels; also recorded: decrease in HIF-1α protein levels
- HIF-2α protein levels (HIF-2α): dramatically reduced; also recorded: reduction; also recorded: decrease
